The values that follow come from article PMC7838189, “Natural podophyllotoxin analog 4DPG attenuates EMT and colorectal cancer progression via activation of checkpoint kinase 2” (Cell Death Discovery, 2021).

In one data set the test system is SW-620/5-FU-R cells. The data set is described as follows: Immunocytochemistry of Vimentin. It is filed as cell-based. The note with it: 48 h. The source says: 4DPG, a podophyllotoxin class of natural product anticancer compound (Supplementary Fig. S2A) has been recently described by our research group for its potent antitumor and anti-metastatic properties against aggressive cancers[31],[32]. Further, 4DPG augments phosphorylation and activation of Chk2 (Thr68) leading to suppression of EMT and invasiveness of p53-defective cancer cells. To investigate the effect of 4DPG on phosphorylation and expression levels of Chk2 in HCT-116/5-FU-R, SW-620/5-FU-R, and HT-29/5-FU-R cells, we treated these cells for 48 h with increasing concentrations of the compound, and whole-cell lysates were subjected to western blotting analysis. […] To determine the effect of 4DPG on the invasion abilities of these 5-FU-R cells, we performed in situ fluorescent gelatin degradation assay following our pre-standardized protocol[31],[37]. In physiological conditions, this assay mimics the extracellular matrix degradation by aggressive tumor cells undergoing invasion–metastasis process.
To examine whether 4DPG-mediated repression of Vimentin and invasiveness is a Chk2-dependent process, we performed genetic silencing of endogenous Chk2 in the 5-FU-R cells using target-specific SiRNAs.
Fig. 3 Chk2-dependent role of 4DPG in modulating p53 and repressing Vimentin expression in 5-FU-R cells. A Immunocytochemistry results showing the Vimentin expression level in SW-620/5-FU-R cells treated/transfected with scramble, SiChk2, scramble plus 4DPG, SiChk2 plus 4DPG, vehicle, PV1019, 4DPG, and PV1019 plus 4DPG for 48 h. Scale bars: 50 µm. […] C Matrigel invasion assay results showing invaded HCT-116/5-FU-R and SW-620/5-FU-R cells following 48 h of transient transfection with GFP and GFP-Chk2 plasmid construct. Scale bars: 50 µm. D Quantification of the number of invaded cells per field from the above experimental conditions. n = 3, error bars, mean ± SD; *P < 0.05, ***P < 0.001. E Immunocytochemistry results displaying Vimentin expression levels in HCT-116/5-FU-R and SW-620/5-FU-R cells after 48 h of transient transfection with pCDNA3 and/or HA-Chk2 plasmid construct. Scale bars: 50 µm. F Immunoprecipitation with Vimentin or p53 followed by western blotting analysis of p53 in SW-620/5-FU-R cells treated with vehicle and/or 4DPG (300 nM) for 48 h. G Cytosolic (left panel) and nuclear (right panel) extracts of SW-620/5-FU-R cells treated with vehicle and/or 4DPG (300 nM) for 48 h showing protein expression of Vimentin and p53. Tubulin and lamin expression was considered as endogenous loading controls for cytosolic and nuclear fractions, respectively.
We followed the standard protocol with some modifications for immunocytochemistry[56],[58]. In brief, cells, at a density of 4 × 10^5 cells/well, were seeded over the sterile coverslips placed in six-well plates. Following the respective treatment, cells were washed thrice with PBS. Next, the cells were fixed with 4% paraformaldehyde (pH = 7.4) for 15 min, permeabilized with 0.3% Triton X-100 for 10 min, and then blocked with 1% goat serum for 30 min. Consequently, the cells were incubated with anti-Vimentin antibody overnight at 4 °C, at a dilution of 1:100, followed by washing with PBST and further incubation with secondary anti-rabbit Alexa Fluor 488 (1:750 dilution). After subsequent washing and mounting, the images were captured at ×20 magnification under Floid Cell Imaging Station (Invitrogen).

The nature of another data set: Solubility determination. It is filed as physicochemical. Here is the method:
Solubility and distribution coefficient are among the major physicochemical properties of a drug that greatly determine its absorption in physiological compartments. […] The distribution coefficient (logD, pH 7.4) of 4DPG was determined to be 0.815 ± 0.19, which indicates the slightly lipophilic nature of the molecule. For administration to animals, the appropriate quantity of 4DPG was formulated in the pre-calculated volume of saline with the help of a solubilizer (Tween-80). Next, to assess the hemocompatibility of 4DPG and establish if the compound could be considered safe for intravenous (i.v.) administration, we performed in vitro hemolysis assay by incubating the RBCs with increasing concentrations of the molecule.
The distribution coefficient, solubility, and hemocompatibility of 4DPG was determined adopting our previously described protocol[37],[40]. For hemolysis assay, increasing concentrations (5, 10, and 20 µg/mL) of 4DPG were employed. Distilled water (DW) and PBS were considered as […].

Data set [1] has as its system tumor tissues of orthotopic rat colorectal carcinoma. In words: Immunohistochemical analysis of tumor tissues. It is filed as in vivo, Wistar rats. The note with it: 25 mg/kg, vs saline-treated group. As to the method:
The procedure was performed following our pre-standardized protocol with minor modifications. Paraffin-embedded tissue sections were prepared from the tumors of saline, 5-FU, and 4DPG-treated groups of animals. Primary antibodies used: p-Chk2 (T68), Chk2, p53, p-Vimentin (S38) and Vimentin at 1:150 dilution for overnight at 4 °C.

Converted amounts (≈) assume the structure as drawn.

Regarding `COc1cc([C@@H]2c3cc4c(cc3C[C@H]3COC(=O)[C@@H]32)OCO4)cc(OC)c1O[C@@H]1O[C@H](CO)[C@@H](O)[C@H](O)[C@H]1O` [4DPG, 4′-demethyl-deoxypodophyllotoxin glucoside], the “Vimentin expression level (immunocytochemistry)” value in the data set with SW-620/5-FU-R cells (300 nM) was “considerable decrease”. The “inhibition of Vimentin level by 4DPG” value with SW-620/5-FU-R cells (PV1019 plus 4DPG) is recorded as “negligible inhibition”; with SW-620/5-FU-R cells (SiChk2 plus 4DPG (Chk2-silenced)) it was “mild inhibition”. Further, in the data set on SW-620/5-FU-R cells (scramble plus 4DPG), the “Vimentin level (immunocytochemistry)” value is given as “substantial reduction”. Besides, the solubility is 539.38 ± 91 µg/mL (≈ 987 µM) in the data set “Solubility determination” (simulated gastric fluid (SGF, pH 1.2)) and 712.92 ± 172 µg/mL (≈ 1300 µM) in “Solubility determination” (simulated intestinal fluid (SIF, pH 6.8)). Besides, the “p-Vimentin (ser38) and Vimentin expression levels in tumor tissues (immunohistochemistry)” value in data set [1] is listed as “decreased”. For the same compound, the “protein levels of p-Chk2 (Thr68) and p53 in tumor tissues (immunohistochemistry)” value in data set [1] is “marked increase”.
